Data on 16 compounds can be found in patent US12037324B2, “Biarylmethyl heterocycles” (Université de Montréal, priority 2016, dated 2024).

Read-outs that look alike come from different tables or passages of the source.

For assay [1], the target named is T1, hAT1R (Homo sapiens, UniProt P30556).
T1 sequence (P30556 1-359): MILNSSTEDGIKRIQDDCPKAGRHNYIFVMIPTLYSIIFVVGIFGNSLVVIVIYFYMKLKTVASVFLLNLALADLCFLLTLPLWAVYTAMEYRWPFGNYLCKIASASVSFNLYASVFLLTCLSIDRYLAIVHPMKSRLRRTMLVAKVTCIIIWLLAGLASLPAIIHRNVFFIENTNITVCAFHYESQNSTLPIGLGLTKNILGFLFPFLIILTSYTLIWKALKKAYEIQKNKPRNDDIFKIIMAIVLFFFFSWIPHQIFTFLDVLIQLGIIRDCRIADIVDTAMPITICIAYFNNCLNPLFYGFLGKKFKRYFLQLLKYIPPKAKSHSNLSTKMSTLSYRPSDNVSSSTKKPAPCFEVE
Description: cell-based.

In assay [2] the target is T1, hAT1R. Briefly: cell-based. Particulars: agonist mode; for EC50: read-out: BRET P63 EC50. (In general: In BRET a luciferase serves as donor, and the signal depends on an acceptor being close.)
In assay [3] the target is T2, AGTR1 (Homo sapiens, UniProt P30556).
T2 construct: host or cells: Pathunter CHO-K1 AGTR1 β-arrestin cell line (CHO-K1)
T2 sequence (P30556 1-359): T1 sequence (P30556 1-359)
Briefly: DiscoveRx β-arrestin2 recruitment assay (enzyme complementation, Pathunter CHO-K1 AGTR1 β-arrestin cell line). In kind it is cell-based. Particulars: DiscoveRx β-arrestin2 recruitment; for DiscoveRx β-arrestin2 Ymax (%): maximal response. In short, it runs like this: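 Chemiluminescent enzyme-complementation read-out of β-arrestin2 recruitment to AGTR1 in engineered CHO-K1 cells after 90 min compound exposure at 37° C. Values are 4-parameter logistic EC50s in agonist mode, IC50s in antagonist mode, with efficacy relative to the maximal All response.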
On the technique in general: Recruitment of arrestin is a read-out of receptor activation apart from second messengers.

The target of assay [4] is T2, AGTR1. Briefly: DiscoveRx IP1 accumulation assay (HTRF), agonist mode, Pathunter CHO-K1 AGTR1 β-arrestin cell line. It is filed as cell-based. Particulars: for EC50: read-out: IP-1 EC50. A digest of the protocol:
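Agonist mode in CHO-K1 AGTR1 β-arrestin cells plated 14-16 h before; compounds at varying concentrations for 90 min at 37° C, IP1 accumulation read by HTRF (D2-conjugate and anti-IP1 cryptate, 20 min room temperature). EC50 from 4-parameter logistic fit; activity given as percentage of maximal AII effect.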

The mark [5] stands for this setting: section of the 42nd table ending at r951, example numbering restarts after the DiscoveRx section, read-out: β-arrestin2 EC50.
Where [6] appears, read: Low AT1R Expression, read-out: BRET β-Arrestin2 Low AT1R Expression EC50.

In general, EC50 refers to the concentration at which the effect is half-maximal. Turning to `CCCCC1=NC2(CCOC2)C(=O)N1Cc1ccc(-c2cc(-c3cccc(C)c3)ccc2-c2nnn[nH]2)cc1` (single isomer, unassigned) [Example 152], the EC50 was 21.8 nM on hAT1R [1] (setting [5]), above 100000 nM on hAT1R [2], 11.6 nM at AGTR1 [3] and 30.7 nM on AGTR1 [4]. For the same compound, the “DiscoveRx β-arrestin2 Ymax (%)” value on AGTR1 [3] amounted to 28.6%. The “IP-1 Ymax (%)” value at AGTR1 [4] stood at 7.0%.
Consider `CCc1nc2c(C)cc(C)nc2n1Cc1ccc(-c2cc(C3CCCC3)ccc2-c2nn[nH]n2)cc1` [Example 80, 3-((5′-cyclopentyl-2′-(2H-tetrazol-5-yl)-[1,1′-biphenyl]-4-yl)methyl)-2-ethyl-5,7-dimethyl-3H-imidazo[4,5-b]pyridine], for which the “BRET β-Arrestin2 Low AT1R Expression Ymax (%)” value at hAT1R [1] (Low AT1R Expression) is 29.8%. Also, the EC50 on hAT1R [1] (setting [6]) was 30.4 nM; at hAT1R [2], above 100000 nM; on AGTR1 [3], 73.4 nM; on AGTR1 [4] it was 425 nM. In addition, at AGTR1 [3], the “DiscoveRx β-arrestin2 Ymax (%)” value is reported as 33.5%. At AGTR1 [4], the “IP-1 Ymax (%)” value was found to be 14.6%.
Regarding `CCc1nc2c(C)cc(C)nc2n1Cc1ccc(-c2cc(-c3cc(C(F)F)ccn3)ccc2-c2nn[nH]n2)cc1` [Example 67], the “BRET β-Arrestin2 Low AT1R Expression Ymax (%)” value at hAT1R [1] (Low AT1R Expression) was determined as 40.7%. Also, the EC50 at hAT1R [1] (setting [6]) came to 14.5 nM. Further, on hAT1R [2], the “BRET P63 Ymax” value was 14.3% and the EC50 was found to be 7.3 nM. Further, on AGTR1 [3], a half-maximal effect (EC50) was put at 19.3 nM and the “DiscoveRx β-arrestin2 Ymax (%)” value is 30.9%. Also, at AGTR1 [4], the “IP-1 Ymax (%)” value is given as 10.2% and the EC50 worked out at 26.5 nM.
Regarding `CCc1nc2c(C)cc(C)nc2n1Cc1ncc(-c2cc(-c3ccccc3O)ccc2-c2nnn[nH]2)cn1` [Example 189], on hAT1R [1] (setting [5]), the EC50 worked out at 49.2 nM. Besides, at hAT1R [2], the “BRET P63 Ymax” value is reported as 17.5% and the EC50 worked out at 32.1 nM. Further, on AGTR1 [3], it took 9.2 nM to reach a half-maximal effect (EC50) and the “DiscoveRx β-arrestin2 Ymax (%)” value was 53.0%. Moreover, on AGTR1 [4], the “IP-1 Ymax (%)” value was 12.7% and the EC50 was found to be 18.4 nM.
Regarding `CCc1nc2c(C)cc(C)nc2n1Cc1ccc(-c2cc(-c3ccc(F)cn3)ccc2-c2nn[nH]n2)cc1` [Example 65], at hAT1R [1] (Low AT1R Expression), the “BRET β-Arrestin2 Low AT1R Expression Ymax (%)” value came to 54.5%. In addition, the EC50 on hAT1R [1] (setting [6]) came to 23.6 nM. Also, at hAT1R [2], the “BRET P63 Ymax” value was 13.1% and the EC50 stood at 17.2 nM. On AGTR1 [3], the response was half-maximal at 27.3 nM (EC50) and the “DiscoveRx β-arrestin2 Ymax (%)” value worked out at 31.0%. At AGTR1 [4], the “IP-1 Ymax (%)” value is recorded as 12.2% and the EC50 amounted to 62.7 nM.
Consider `CCc1nc2c(C)cc(C)nc2n1Cc1ccc(-c2cc(-c3cccc(C)c3)ccc2-c2nnn[nH]2)nn1` [Example 191, 2-ethyl-5,7-dimethyl-3-((6-(3′-methyl-4-(1H-tetrazol-5-yl)biphenyl-3-yl)pyridazin-3-yl)methyl)-3H-imidazo[4,5-b]pyridine], for which the EC50 on hAT1R [1] (setting [5]) amounted to 76 nM; on hAT1R [2], 101 nM; on AGTR1 [3], 20.7 nM; on AGTR1 [4] it was 118 nM. The “BRET P63 Ymax” value at hAT1R [2] came to 24.2%. Further, the “DiscoveRx β-arrestin2 Ymax (%)” value at AGTR1 [3] turned out to be 53.0%. Besides, the “IP-1 Ymax (%)” value at AGTR1 [4] was found to be 29.9%.
With `CCc1nc2c(C)cc(C)nc2n1Cc1cnc(-c2cc(-c3ccccc3)ccc2-c2nnn[nH]2)cn1` [Example 187, 3-((5-(4-(1H-tetrazol-5-yl)-[1,1′-biphenyl]-3-yl)pyrazin-2-yl)methyl)-2-ethyl-5,7-dimethyl-3H-imidazo[4,5-b]pyridine], at hAT1R [1] (setting [5]), the concentration giving a half-maximal response (EC50) is 181 nM. In addition, on hAT1R [2], the “BRET P63 Ymax” value is on record as 8.4% and the EC50 turned out to be 168 nM. At AGTR1 [3], the EC50 came out at 44.4 nM and the “DiscoveRx β-arrestin2 Ymax (%)” value is 34.0%. On AGTR1 [4], the “IP-1 Ymax (%)” value was found to be 16.1% and the EC50 was 104 nM.
Take `CCC1=NC2(CCOC2)C(=O)N1Cc1ccc(-c2cc(-c3cccc(C)c3)ccc2-c2nnn[nH]2)cc1` (single isomer, unassigned) [Example 166]: the EC50 at hAT1R [1] (setting [5]) is 64.5 nM; at hAT1R [2], 65 nM; at AGTR1 [3] it was 23.1 nM; on AGTR1 [4] it was 103 nM. At hAT1R [2], the “BRET P63 Ymax” value is reported as 22.7%. Further, the “DiscoveRx β-arrestin2 Ymax (%)” value at AGTR1 [3] is 47.5%. In addition, the “IP-1 Ymax (%)” value at AGTR1 [4] is given as 14.8%.
With `CCCC1=NC2(CCOC2)C(=O)N1Cc1ccc(-c2cc(-c3cccc(C)c3)ccc2-c2nnn[nH]2)cc1` (single isomer, unassigned) [Example 163], the EC50 at hAT1R [1] (setting [5]) was 91.8 nM; at hAT1R [2], above 10000 nM; at AGTR1 [3], 69.2 nM; on AGTR1 [4], 181 nM. At AGTR1 [3], the “DiscoveRx β-arrestin2 Ymax (%)” value is recorded as 34.6%. In addition, on AGTR1 [4], the “IP-1 Ymax (%)” value is listed as 7.8%.
Take `CCc1nc2c(C)cc(C)nc2n1Cc1cnc(-c2cc(-c3cccc(C)c3)ccc2-c2nnn[nH]2)nc1` [Example 197, 2-ethyl-5,7-dimethyl-3-((2-(3′-methyl-4-(1H-tetrazol-5-yl)biphenyl-3-yl)pyrimidin-5-yl)methyl)-3H-imidazo[4,5-b]pyridine]: the 50% effective concentration (EC50) is above 10000 nM at hAT1R [1] (setting [5]), above 100000 nM on hAT1R [2], 282 nM on AGTR1 [3] and 493 nM at AGTR1 [4]. In addition, on AGTR1 [3], the “DiscoveRx β-arrestin2 Ymax (%)” value worked out at 20.2%. Further, the “IP-1 Ymax (%)” value at AGTR1 [4] is 5.7%.
In the case of `CCCCn1cc(-c2ccc(-c3nnn[nH]3)c(-c3ccc(Cn4c(CC)nc5c(C)cc(C)nc54)cc3)c2)nn1` [Example 241], the EC50 is 50.2 nM at hAT1R [1] (setting [5]), 40.5 nM at hAT1R [2], 41.5 nM on AGTR1 [3] and 150 nM on AGTR1 [4]. Further, at hAT1R [2], the “BRET P63 Ymax” value stood at 17.5%. In addition, the “DiscoveRx β-arrestin2 Ymax (%)” value at AGTR1 [3] is reported as 44.3%. For the same compound, at AGTR1 [4], the “IP-1 Ymax (%)” value is 12.8%.
`CCC1=NC2(CCOC2)C(=O)N1Cc1ccc(-c2cc(-c3ccccc3O)ccc2-c2nnn[nH]2)cc1` (single isomer, unassigned) [Example 170]: the EC50 at hAT1R [1] (setting [5]) was 590 nM. At hAT1R [2], the “BRET P63 Ymax” value is on record as 13.5% and the EC50 came out at 633 nM. Moreover, at AGTR1 [3], the EC50 turned out to be 170 nM and the “DiscoveRx β-arrestin2 Ymax (%)” value was found to be 63.4%. Moreover, at AGTR1 [4], the “IP-1 Ymax (%)” value was determined as 13.2% and the EC50 came out at 469 nM.
For `CCc1nc2c(C)cc(C)nc2n1Cc1ccc(-c2cc(-c3ccccc3)ccc2-c2n[nH]c(=S)o2)cc1` [Example 246, 5-(4″-((2-Ethyl-5,7-dimethyl-3H-imidazo[4,5-b]pyridin-3-yl)methyl)-[1,1′:3′,1″-terphenyl]-4′-yl)-1,3,4-oxadiazole-2(3H)-thione], the EC50 at hAT1R [1] (setting [5]) came to 916 nM. Also, on hAT1R [2], the “BRET P63 Ymax” value is 10.1% and the EC50 was determined as 82.6 nM. In addition, on AGTR1 [3], the midpoint of the response, the EC50, lay at 234 nM and the “DiscoveRx β-arrestin2 Ymax (%)” value was 38.3%. Further, on AGTR1 [4], the “IP-1 Ymax (%)” value is given as 4.8% and the EC50 was 281 nM.
Take `CCC1=NC2(CCOC2)C(=O)N1Cc1ccc(-c2cc(-c3ccccc3)ccc2-c2nn[nH]n2)cc1` (single isomer, unassigned) [Example 165]: the EC50 on hAT1R [1] (setting [5]) was 281 nM. At hAT1R [2], the “BRET P63 Ymax” value was found to be 14.1% and the EC50 is 262 nM. At AGTR1 [3], the EC50 was 56.8 nM and the “DiscoveRx β-arrestin2 Ymax (%)” value amounted to 45.7%. Besides, on AGTR1 [4], the “IP-1 Ymax (%)” value stood at 17.7% and the EC50 amounted to 192 nM.
With `CC1=NC2(CCOCC2)C(=O)N1Cc1ccc(-c2cc(-c3ccccc3)ccc2-c2nn[nH]n2)cc1` [Example 172, 3-((6′-(2H-tetrazol-5-yl)-[1,1′:3′,1″-terphenyl]-4-yl)methyl)-2-methyl-8-oxa-1,3-diazaspiro[4.5]dec-1-en-4-one], the EC50 was above 10000 nM on hAT1R [1] (setting [5]), above 10000 nM on hAT1R [2], 196 nM at AGTR1 [3] and 782 nM at AGTR1 [4]. At AGTR1 [3], the “DiscoveRx β-arrestin2 Ymax (%)” value was 27.1%. For the same compound, the “IP-1 Ymax (%)” value on AGTR1 [4] was 9.4%.
In the case of `CCCC1=NC2(CCCC2)C(=O)N1Cc1ccc(-c2cc(-c3cc(C)ccn3)ccc2-c2nn[nH]n2)cc1` [Example 116, 3-((5′-(4-methylpyridin-2-yl)-2′-(2H-tetrazol-5-yl)-[1,1′-biphenyl]-4-yl)methyl)-2-propyl-1,3-diazaspiro[4.4]non-1-en-4-one], the “BRET β-Arrestin2 Low AT1R Expression Ymax (%)” value at hAT1R [1] (Low AT1R Expression) was 81.9%. The EC50 on hAT1R [1] (setting [6]) is 17.2 nM. Besides, on hAT1R [2], the “BRET P63 Ymax” value was determined as 27.7% and the EC50 came out at 14.7 nM. For the same compound, on AGTR1 [3], the EC50 came to 14.1 nM and the “DiscoveRx β-arrestin2 Ymax (%)” value came to 42.1%. Further, at AGTR1 [4], the “IP-1 Ymax (%)” value is listed as 15.1% and the EC50 was 39.7 nM.
